Assay results reported in patent US9644019B2, “Compounds for treating cardiac damage after ischaemia/reperfusion” (priority 2010, dated 2017).
No end group written: not given here.

What was measured:
EMMPRIN promoter = EMMPRIN promoter luciferase reporter (pEMMPRIN-WT), transient transfection of cardiomyocytes; assay type: cell-based, mouse; conditions: for EMMPRIN promoter transcriptional activity: cardiomyocytes transiently transfected with pEMMPRIN-WT
Method: To clone the mouse EMMPRIN promoter, commercial chromosome BAC CH29-603O5 (which contains part of murine chromosome 10), from CHORI (Children's Hospital Oakland Research Institute) was used as a template in PCR reactions with the following oligonucleotides:
The resulting PCR fragment was cloned into the pGL3-Basic vector (Promega) at 5′ position to the luciferase reporter gene (hereinafter referred to as pEMMPRIN-WT).
The transient DNA transfection experiments were carried out by means of using the LIPOFECTAMINE (catatonic-lipid transfection reagent) 2000 reagent as previously described by the manufacturer. The luciferase content in the transfected cells was measured as previously described [Zaragoza C et al. Molecular pharmacology 2002; 62:927-935]. In summary, the cells were transiently transfected with 1 microgram of DNA and 10 μl of LIPOFECTAMINE (catatonic-lipid transfection reagent) 2000 in OPTIMEM culture medium (a modification of Eagle's Minimum Essential Media, buffered with HEPES and sodium bicarbonate, and supplemented with hypoxanthine, thymidine, sodium pyruvate, L-glutamine, trace elements, and growth factors) for 4 hours, after which time they were washed and incubated with fresh culture medium (MEM/10% FCS) for 16 hours. Furthermore, as a control, the cells were co-transfected with a plasmid containing the constitutively active promoter of cytomegalovirus fused with the R-Luciferase gene (Renilla), used as a control. Each sample was therefore evaluated for the content of both P-(firefly) and R-luciferase. […] of the gene product of the reporter gene of the co-transfected control plasmid. The results were normalized for R-Luciferase content.
To analyze in depth the repressive effect of NO on the EMMPRIN transcription, the first 1000 bps of the regulatory region of the EMMPRIN gene, fused to the luciferase reporter gene (pEMMPRIN-WT), were cloned.

iNOS = molecular target: T1, iNOS (Mus musculus, UniProt P29477); assay: Coronary ischemia/reperfusion with pharmacological iNOS inhibition in iNOS wild-type mice; assay type: in vivo
T1 construct: tissue The Jackson Laboratories (mice); host or cells: living wild-type mice; heart after coronary ischemia/reperfusion
T1 sequence (P29477 1-1144): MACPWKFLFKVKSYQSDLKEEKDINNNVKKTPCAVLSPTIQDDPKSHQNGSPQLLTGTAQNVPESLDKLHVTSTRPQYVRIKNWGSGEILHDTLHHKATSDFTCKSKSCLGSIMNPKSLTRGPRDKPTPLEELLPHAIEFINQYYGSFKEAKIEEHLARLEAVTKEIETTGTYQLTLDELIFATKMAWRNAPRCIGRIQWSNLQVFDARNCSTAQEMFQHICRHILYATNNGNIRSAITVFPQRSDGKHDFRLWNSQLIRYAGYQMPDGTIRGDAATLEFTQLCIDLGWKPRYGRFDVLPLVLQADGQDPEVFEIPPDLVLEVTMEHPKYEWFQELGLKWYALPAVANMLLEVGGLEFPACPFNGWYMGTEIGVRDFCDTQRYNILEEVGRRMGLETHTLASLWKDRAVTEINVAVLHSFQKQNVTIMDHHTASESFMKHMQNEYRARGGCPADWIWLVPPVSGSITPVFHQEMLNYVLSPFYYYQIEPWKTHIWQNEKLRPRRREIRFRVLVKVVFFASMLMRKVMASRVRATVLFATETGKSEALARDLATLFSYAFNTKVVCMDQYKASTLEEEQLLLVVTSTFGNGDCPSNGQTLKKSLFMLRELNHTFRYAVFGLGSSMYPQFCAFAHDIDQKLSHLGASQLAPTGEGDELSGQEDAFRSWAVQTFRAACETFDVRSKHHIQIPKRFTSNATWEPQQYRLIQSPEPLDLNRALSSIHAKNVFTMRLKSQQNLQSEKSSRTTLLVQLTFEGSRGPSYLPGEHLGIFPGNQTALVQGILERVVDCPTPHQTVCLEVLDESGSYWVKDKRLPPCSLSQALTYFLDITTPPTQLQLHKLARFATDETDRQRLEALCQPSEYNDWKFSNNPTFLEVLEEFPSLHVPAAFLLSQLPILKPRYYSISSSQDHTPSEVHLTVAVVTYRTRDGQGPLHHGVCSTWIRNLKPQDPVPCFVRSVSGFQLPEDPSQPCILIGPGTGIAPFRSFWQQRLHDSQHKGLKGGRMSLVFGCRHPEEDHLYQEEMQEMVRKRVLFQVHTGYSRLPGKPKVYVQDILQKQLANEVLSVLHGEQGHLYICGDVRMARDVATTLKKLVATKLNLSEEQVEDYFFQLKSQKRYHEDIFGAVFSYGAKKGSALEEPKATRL
Method: Ischemia was induced by means of the coronary artery ligation in the manner detailed below: twelve week old mice were anesthetized intraperitoneally by means of using ketamine/xylazine (100 mg/kg/10 mg/kg, respectively), intubated with a 1 mm steel tube, and ventilated (2 ml, 80 pulses/minute). After this process, the chest of the mice was opened between the second and third ribs, being kept open by means of the aid of a retractor for mice. The pericardium was then opened to subsequently temporarily ligate the left coronary artery in a region close to its branch by means of using a 6-0 silk suture and for a period of 30 minutes. Evidence of coronary occlusion was clearly shown by means of the discoloration of the left ventricle after the arterial ligation. After 30 minutes, the ligation is removed, the chest closed and the skin sutured. Additionally, a group of control animals (sham) were included in the assays, in which the same method was carried out with the exception of the coronary artery occlusion. To inhibit iNOS in vivo, the iNOS wild-type mice were injected in the tail vein with 2 mg/kg/day of the pharmacological inhibitor of iNOS, 1400W, 30 minutes before ischemia and 24 hours after ischemia/reperfusion. […] To evaluate the effect of anti-EMMPRIN on the ischemic process/reperfusion, the antibodies were administered intravenously for four days before the surgical procedure, after which time the infarct size, cardiac function and EMMPRIN and MMP-9 expression were evaluated.
The heart of the animals was included in paraffin to subsequently obtain sections 4 microns thick as previously described [Tarin et al. mentioned ad supra]. The morphology of the heart was viewed by means of staining with hematoxylin and eosin, whereas collagen deposition was monitored by means of Masson's trichrome staining. […]
Additionally, nitration was detected by means of using anti-3-Nitrotyrosine in sections isolated from those same animals, confirming that the exogenously supplied NO was present in the hearts of the animals treated during the time of the experiment (FIG. 2D, right).

EMMPRIN mRNA [1] = assay: EMMPRIN mRNA stability assay (actinomycin D) in RAW macrophages; assay type: cell-based, murine
Method: (§1) For this assay, cells were incubated in wells […] in diameter and incubated in the presence of 10 μM of actinomycin D for 16 hours, after which time the cells were treated with diethylenetriamine-NO (DETA-NO) at different times. The RNA of the different experiment times was isolated and both for EMMPRIN and for GAPDH (as a control), their mRNAs were evaluated by means of quantitative real-time RT-PCR.

EMMPRIN mRNA [2] = assay: EMMPRIN mRNA stability assay (actinomycin D) in HL-1 cardiomyocytes; assay type: cell-based, mouse; conditions: cardiomyocyte cell line, over time
Method: as §1

EMMPRIN mRNA [3] = assay: EMMPRIN mRNA, quantitative real-time RT-PCR in HL1 cardiomyocytes; assay type: cell-based, mouse; conditions: cardiomyocytes in culture, 100 μM DETA-NO
Method: (§2) (A) Quantitative real-time RT-PCR showing EMMPRIN expression in the hearts of wild-type and iNOS knockout animals after ischemia/reperfusion (n=3 in triplicate, mean±SD *p<0.05 vs iNOS null−). (B) Quantitative real-time RT-PCR showing EMMPRIN expression in HL1 cardiomyocytes in response to the exogenous administration of 100 μM DETA-NO (n=3, mean±SD *p<0.05). (C) Quantitative real-time RT-PCR showing EMMPRIN expression in RAW […] macrophages in culture in response to the exogenous administration of 100 μM of DETA-NO, endogenous NO production (50 μM LPS), or iNOS inhibition by means of adding 100 μM 1400W (n=3 mean±SD). (D) Stability assay of EMMPRIN mRNA in HL-1 cardiomyocytes (left) and in RAW […] macrophages (right) (n=3, mean±SD *p<0.05).
(§3) The HL1 cardiomyocyte cell line was donated by Dr. Antonio Bernad and cultured as described [Ruiz-Meana M et al. Cardiovascular research 2006; 71:715-724]. The RAW […] murine macrophage line was cultured as described [Tarin C et al. Arteriosclerosis, thrombosis, and vascular biology 2009; 29:27-32].

EMMPRIN mRNA [4] = assay: EMMPRIN mRNA, quantitative real-time RT-PCR in RAW macrophages; assay type: cell-based, murine; conditions: RAW macrophage cell line, 100 μM DETA-NO
Method: as §2, §3

[5] = test system: MAEC cells (mouse aortic endothelial cells); assay: Internalization of AP-9 nanoparticles by MAEC cells and co-localization with EMMPRIN; assay type: cell-based; conditions: for internalization into MAEC cells: overnight incubation
Method: The MAEC cells were incubated overnight with the AP-9 nanoparticles (NP-AP-9) (20 μg/ml) (right panel) or with non-loaded nanoparticles (NP-NT) (left panel). The MAEC cells were fixed, and EMMPRIN expression was detected using an anti-EMMPRIN antibody. Co-localization between the NP-AP-9 signal and the EMMPRIN signal was found in MAEC cells treated with NP-AP-9 (right panel), but this co-localization was not found in the control nanoparticles. The cores were stained with DAPI.
The MAEC cells were cultured in a black 96-well plate and incubated overnight with different concentrations of nanoparticles loaded with AP-9 (NP-AP9) or nanoparticles without AP-9 (NP-NT). Fluorescence was measured using an IVIS imaging system. The graph on the right represents the intensity of the fluorescence signal of the image on the left.
Nanoparticles containing AP-9 have therapeutic value, because EMMPRIN is inhibited and tissue damage due to proteolytic enzyme activation is reduced.

In the case of `CC(=O)NC(C(=O)O)C(C)(C)SN=O` (racemic) [SNAP, S-Nitroso-N-acetyl-D,L-penicillamine], the “EMMPRIN promoter transcriptional activity” value (EMMPRIN promoter) is reported as “results similar to those generated with DETA-NO”.

In the case of `Nc1nc2c(nc(Br)n2[C@@H]2O[C@@H]3COP(=O)(O)O[C@H]3[C@H]2O)c(=O)[nH]1` [8-Br-cGMP], the “EMMPRIN promoter transcriptional activity” value (EMMPRIN promoter) is reported as “same effect as the NO donor”.

For `CC(=N)NCc1cccc(CN)c1` [1400W], the infarct size (iNOS; 1400W 2 mg/kg/day tail vein, vs control mice) was “significantly increase”, the MMP-9 levels (iNOS; 1400W 2 mg/kg/day, WT 1400WC vs WT 1400W) was “increase” and the EMMPRIN levels (iNOS; 1400W 2 mg/kg/day, vs control mice) was “increase”.

For `NCCN(CCN)/[N+]([O-])=N/O` [DETA-NO, diethylenetriamine-NO], the “EMMPRIN mRNA stability” value (EMMPRIN mRNA [1]) was “no effect whatsoever”, the “EMMPRIN mRNA stability” value (EMMPRIN mRNA [2]) was “significant reduction” and the “EMMPRIN mRNA levels” value (EMMPRIN mRNA [3]) was “significantly reduced”. The EMMPRIN gene expression (EMMPRIN mRNA [4]) was “did not induce a significant effect”.

`O=c1c2nc(Br)n([C@@H]3O[C@@H]4CO[P@@](O)(=S)O[C@H]4[C@H]3O)c2nc2[nH]c(-c3ccccc3)cn12` [Rp-8-Br-PET-cGMPS] was tested, and the “EMMPRIN promoter transcriptional activity” value (EMMPRIN promoter) was “significant increase” and the “EMMPRIN promoter activity in combination with NO” value (EMMPRIN promoter; cardiomyocytes, pEMMPRIN-WT, PET + NO (100 μM DETA-NO)) was “partially restoring the negative effect of NO”.

In the case of `NCCCNCCCCN(CCCN)/[N+]([O-])=N/O` [Spermine-NONOate], the “EMMPRIN promoter transcriptional activity” value (EMMPRIN promoter) is reported as “results similar to those generated with DETA-NO”.

For “NP-AP-9: nanoparticles with iron oxide core, single lipid-PEG layer with fluorochrome, and AP-9 peptide bound to the surface (YKLPGHHHHYRP; also: bound to surface of iron oxide nanoparticles with lipid-PEG layer and fluorochrome, attachment site not given here)”, the “co-localization of nanoparticle signal with EMMPRIN signal” value ([5]; 20 μg/ml overnight) was “Co-localization”, the “dose dependence of internalization (fluorescence signal)” value ([5]; 96-well plate, different concentrations overnight, IVIS imaging) was “dose-dependent manner” and the “internalization into MAEC cells” value [5] was “internalization”. The “internalization into MAEC cells” value ([5]; listed as Nanoparticles containing AP-9) was “could be internalized”.
